Assay results reported in US20110028518A1, “DEXLANSOPRAZOLE PROCESS AND POLYMORPHS” (DR. REDDY'S LABORATORIES LTD., priority 2008, published 2011).

Assay: Storage stability studies (Example 27): appearance, PXRD, HPLC purity, impurities and chiral purity
Format: physicochemical
Details: for Chiral Purity / Highest Impurity / Purity / Sulfide / Sulfone: HPLC
Text: A high performance liquid chromatography (HPLC) method for measuring the chemical purity of dexlansoprazole or a compound of formula (VII) of the present application, and for determination of their corresponding impurities, involves the use of a YMC-PAK ODS-A 100×4.6, 3 μm or equivalent column.
A high performance liquid chromatography method useful for measuring the enantiomeric purity of dexlansoprazole or a compound of formula (VII) of the present application involves the use of a Chiralpak-IC, 250×4.6 mm or equivalent column.
Products from certain of the above examples and a crystalline dexlansoprazole, prepared according to Example 2 of U.S. Pat. No. 6,462,058, were tested for their storage stabilities. The samples were stored in tied clear polyethylene bags that were placed in sealed black polyethylene bags along with a silica gel desiccant pouch filled with nitrogen, and finally the black bags were placed into triple laminated foil bags along with a silica gel pouch and then sealed and stored in HDPE drum packages under the conditions noted in the following results tables. Samples were analyzed before storage, at intervals during storage, and after storage.
Samples were analyzed by HPLC for chemical purity, for:
a “sulfide” impurity, having a chemical name 2-[[{4-(2,2,2-trifluoroethoxy)-3-methylpyridine-2-yl}methyl]thio]-1H-benzimidazole and the following structure;
a “sulfone” impurity, having a chemical name 2-[[{4-(2,2,2-trifluoroethoxy)-3-methylpyridine-2-yl}methyl]sulfonyl]-1H-benzimidazole and the following structure;
and for chiral purity. Also given in the tables is the concentration of the highest unidentified impurity, as determined by HPLC, and the PXRD analysis result. All percentages given below are expressed on a weight basis.

[1] = Initial Analysis, before storage

Q: What does the source list for `Cc1c(OCC(F)(F)F)ccnc1C[S@@+]([O-])c1nc2ccccc2[nH]1` [Example 8, dexlansoprazole]?
A: Appearance (After 1 Week at 2-8° C.): Light yellow; PXRD (After 1 Week at 2-8° C.): Amorphous; Chiral Purity (After 1 Week at 2-8° C.): 99.89%; Highest Impurity (After 1 Week at 2-8° C.): 0.13%; Purity (After 1 Week at 2-8° C.): 97.21%; Sulfide (After 1 Week at 2-8° C.): 1.83%; Sulfone (After 1 Week at 2-8° C.): 0.63%; Appearance (After 1 Week at 25-35° C.): Light yellow; PXRD (After 1 Week at 25-35° C.): Amorphous; Chiral Purity (After 1 Week at 25-35° C.): 99.86%; Highest Impurity (After 1 Week at 25-35° C.): 0.14%; Purity (After 1 Week at 25-35° C.): 97.12%; Sulfide (After 1 Week at 25-35° C.): 1.84%; Sulfone (After 1 Week at 25-35° C.): 0.68%; Appearance (After 2 Weeks at 2-8° C.): Light yellow; PXRD (After 2 Weeks at 2-8° C.): Amorphous; Chiral Purity (After 2 Weeks at 2-8° C.): 99.87%; Highest Impurity (After 2 Weeks at 2-8° C.): 0.11%; Purity (After 2 Weeks at 2-8° C.): 97.21%; Sulfide (After 2 Weeks at 2-8° C.): 1.79%; Sulfone (After 2 Weeks at 2-8° C.): 0.63%; Appearance (After 2 Weeks at 25-35° C.): Light yellow; PXRD (After 2 Weeks at 25-35° C.): Amorphous; Chiral Purity (After 2 Weeks at 25-35° C.): 99.86%; Highest Impurity (After 2 Weeks at 25-35° C.): 0.11%; Purity (After 2 Weeks at 25-35° C.): 97.23%; Sulfide (After 2 Weeks at 25-35° C.): 0.63%; Sulfone (After 2 Weeks at 25-35° C.): 1.78%; Appearance (After 3 Weeks at 2-8° C.): Light yellow; PXRD (After 3 Weeks at 2-8° C.): Amorphous; Chiral Purity (After 3 Weeks at 2-8° C.): 99.85%; Highest Impurity (After 3 Weeks at 2-8° C.): 0.12%; Purity (After 3 Weeks at 2-8° C.): 97.27%; Sulfide (After 3 Weeks at 2-8° C.): 1.77%; Sulfone (After 3 Weeks at 2-8° C.): 0.62%; Appearance (After 3 Weeks at 25-35° C.): Light yellow; PXRD (After 3 Weeks at 25-35° C.): Amorphous; Chiral Purity (After 3 Weeks at 25-35° C.): 99.84%; Highest Impurity (After 3 Weeks at 25-35° C.): 0.15%; Purity (After 3 Weeks at 25-35° C.): 97%; Sulfide (After 3 Weeks at 25-35° C.): 1.79%; Sulfone (After 3 Weeks at 25-35° C.): 0.63%; Appearance [1]: Light yellow; PXRD [1]: Amorphous; Chiral Purity [1]: 99.86%; Highest Impurity [1]: 0.24%; Purity [1]: 97.14%; Sulfide [1]: 1.77%; Sulfone [1]: 0.61%

Q: What does the source list for `Cc1c(OCC(F)(F)F)ccnc1C[S@@+]([O-])c1nc2ccccc2[nH]1` [Example 16 (A), dexlansoprazole]?
A: Appearance (After 1 Week at 2-8° C.): Light brown; PXRD (After 1 Week at 2-8° C.): Amorphous; Chiral Purity (After 1 Week at 2-8° C.): 96.57%; Highest Impurity (After 1 Week at 2-8° C.): 0.09%; Purity (After 1 Week at 2-8° C.): 83.76%; Sulfide (After 1 Week at 2-8° C.): 13.78%; Sulfone (After 1 Week at 2-8° C.): 1.48%; Appearance (After 1 Week at 25-35° C.): Light brown; PXRD (After 1 Week at 25-35° C.): Amorphous; Chiral Purity (After 1 Week at 25-35° C.): 96.56%; Highest Impurity (After 1 Week at 25-35° C.): 0.14%; Purity (After 1 Week at 25-35° C.): 83.03%; Sulfide (After 1 Week at 25-35° C.): 13.83%; Sulfone (After 1 Week at 25-35° C.): 1.55%; Appearance (After 2 Weeks at 2-8° C.): Light brown; PXRD (After 2 Weeks at 2-8° C.): Amorphous; Chiral Purity (After 2 Weeks at 2-8° C.): 96.86%; Highest Impurity (After 2 Weeks at 2-8° C.): 0.17%; Purity (After 2 Weeks at 2-8° C.): 83.6%; Sulfide (After 2 Weeks at 2-8° C.): 13.63%; Sulfone (After 2 Weeks at 2-8° C.): 1.45%; Appearance (After 2 Weeks at 25-35° C.): Light brown; PXRD (After 2 Weeks at 25-35° C.): Amorphous; Chiral Purity (After 2 Weeks at 25-35° C.): 96.49%; Highest Impurity (After 2 Weeks at 25-35° C.): 1.16%; Purity (After 2 Weeks at 25-35° C.): 80.85%; Sulfide (After 2 Weeks at 25-35° C.): 13.8%; Sulfone (After 2 Weeks at 25-35° C.): 1.49%; Appearance (After 3 Weeks at 2-8° C.): Light brown; PXRD (After 3 Weeks at 2-8° C.): Amorphous; Chiral Purity (After 3 Weeks at 2-8° C.): 96.73%; Highest Impurity (After 3 Weeks at 2-8° C.): 0.07%; Purity (After 3 Weeks at 2-8° C.): 83.9%; Sulfide (After 3 Weeks at 2-8° C.): 13.69%; Sulfone (After 3 Weeks at 2-8° C.): 1.5%; Appearance (After 3 Weeks at 25-35° C.): Light brown; PXRD (After 3 Weeks at 25-35° C.): Amorphous; Chiral Purity (After 3 Weeks at 25-35° C.): 96.67%; Highest Impurity (After 3 Weeks at 25-35° C.): 0.8%; Purity (After 3 Weeks at 25-35° C.): 82.07%; Sulfide (After 3 Weeks at 25-35° C.): 13.69%; Sulfone (After 3 Weeks at 25-35° C.): 1.51%; Appearance [1]: Light brown; PXRD [1]: Amorphous; Chiral Purity [1]: 96.59%; Highest Impurity [1]: 0.08%; Purity [1]: 84.42%; Sulfide [1]: 13.43%; Sulfone [1]: 1.45%
